Square brackets hold non-standard residues; d marks the D form. Peptide text beside a SMILES is read from it. Aib = CC(C)(N)C(=O)O
What was measured:
[1] = molecular target: T1, human GLP-1 receptor (Homo sapiens, UniProt P43220); test: GLP-1 receptor potency assay (cAMP AlphaScreen, HEK293 cells stably expressing GLP-1R); type: cell-based; conditions: cAMP response, HEK293 cells expressing human GLP-1R; read-out: EC50 GLP-1
T1 construct: expressed in transfected cells
Summary of the method: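 cAMP accumulation was quantified by AlphaScreen in G418-selected HEK293 cells stably transfected with human GLP-1R cDNA. Concentration-response data were normalized between vehicle and positive control. EC50 and maximal response came from 4PL curve fitting.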

[2] = molecular target: T2, human GLP-2 receptor (Homo sapiens, UniProt O95838, D470N); test: GLP-2 receptor potency assay (cAMP AlphaScreen, HEK293 cells stably expressing GLP-2R); type: cell-based; conditions: cAMP response, HEK293 cells expressing human GLP-2R
T2 sequence (O95838 1-553 D470N): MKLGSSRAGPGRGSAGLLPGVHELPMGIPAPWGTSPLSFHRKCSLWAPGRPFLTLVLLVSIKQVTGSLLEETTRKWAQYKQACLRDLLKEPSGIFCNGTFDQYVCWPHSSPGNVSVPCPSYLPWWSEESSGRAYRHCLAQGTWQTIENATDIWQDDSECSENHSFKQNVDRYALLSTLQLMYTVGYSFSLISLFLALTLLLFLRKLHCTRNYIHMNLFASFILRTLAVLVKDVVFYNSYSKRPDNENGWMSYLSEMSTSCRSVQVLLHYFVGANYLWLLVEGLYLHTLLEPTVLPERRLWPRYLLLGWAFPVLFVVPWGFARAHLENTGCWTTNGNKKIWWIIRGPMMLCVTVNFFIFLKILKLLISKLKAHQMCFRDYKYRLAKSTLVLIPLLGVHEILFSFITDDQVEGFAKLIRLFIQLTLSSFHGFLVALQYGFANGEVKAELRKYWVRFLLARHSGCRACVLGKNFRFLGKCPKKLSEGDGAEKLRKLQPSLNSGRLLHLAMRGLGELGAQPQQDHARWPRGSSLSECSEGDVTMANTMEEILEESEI
Summary of the method: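 EC50 and maximal response were fitted with a 4PL model after normalization to positive control and vehicle. cAMP accumulation was quantified by AlphaScreen in a stable HEK293 clone transfected with human GLP-2 receptor.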

T1 sequence (P43220 24-463): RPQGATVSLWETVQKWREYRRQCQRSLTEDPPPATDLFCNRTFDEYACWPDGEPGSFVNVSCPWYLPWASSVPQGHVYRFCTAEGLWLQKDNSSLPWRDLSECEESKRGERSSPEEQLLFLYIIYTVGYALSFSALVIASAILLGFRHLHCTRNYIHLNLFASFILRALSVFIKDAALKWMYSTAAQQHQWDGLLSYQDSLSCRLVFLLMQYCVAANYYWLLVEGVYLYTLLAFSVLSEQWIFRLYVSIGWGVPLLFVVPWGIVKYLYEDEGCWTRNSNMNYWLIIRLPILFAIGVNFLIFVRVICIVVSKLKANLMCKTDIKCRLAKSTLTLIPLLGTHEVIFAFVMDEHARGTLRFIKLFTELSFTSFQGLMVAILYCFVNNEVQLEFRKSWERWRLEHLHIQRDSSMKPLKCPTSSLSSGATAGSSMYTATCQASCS

| Compound | EC50 [1] | EC50 [2] |
| --- | --- | --- |
| CC[C@H](C)[C@H](NC(=O)[C@H](Cc1ccccc1)NC(=O)[C@H](CC(=O)O)NC(=O)[C@H](CCCNC(=N)N)NC(=O)[C@H](C)NC(=O)[C@H](C)NC(=O)[C@H](CCC(N)=O)NC(=O)[C@H](CCC(=O)O)NC(=O)[C@H](CC(=O)O)NC(=O)[C@H](CC(C)C)NC(=O)[C@@H](NC(=O)[C@@H](NC(=O)[C@H](C)NC(=O)[C@H](CC(C)C)NC(=O)[C@H](CCC(=O)O)NC(=O)[C@H](CO)NC(=O)[C@@H](NC(=O)[C@H](Cc1ccccc1)NC(=O)[C@@H](NC(=O)CNC(=O)[C@H](CCC(=O)O)NC(=O)C(C)(C)NC(=O)[C@@H](N)Cc1c[nH]cn1)[C@@H](C)O)[C@@H](C)O)[C@@H](C)O)[C@@H](C)CC)C(=O)N[C@@H](C)C(=O)N[C@@H](Cc1c[nH]c2ccccc12)C(=O)N[C@@H](CC(C)C)C(=O)N[C@@H](Cc1c[nH]cn1)C(=O)N[C@@H](CCC(N)=O)C(=O)N[C@@H](Cc1c[nH]cn1)C(=O)N[C@@H](CCCCN)C(=O)N[C@H](C(=O)N[C@H](C(=O)N[C@@H](CC(=O)O)C(=O)O)[C@@H](C)O)[C@@H](C)CC [Compound 21] (H-H[Aib]EGTFTSELATILDEQAARDFIAWLHQHKITD-OH) | 0.049 nM | 0.11 nM |
| CC[C@H](C)[C@H](NC(=O)[C@H](Cc1ccccc1)NC(=O)[C@H](CC(=O)O)NC(=O)[C@H](CCCNC(=N)N)NC(=O)[C@H](C)NC(=O)[C@H](C)NC(=O)[C@H](CCC(N)=O)NC(=O)[C@H](CCC(=O)O)NC(=O)[C@H](CC(=O)O)NC(=O)[C@H](CC(C)C)NC(=O)[C@@H](NC(=O)[C@@H](NC(=O)[C@H](C)NC(=O)[C@H](CC(C)C)NC(=O)[C@H](CCC(=O)O)NC(=O)[C@H](CO)NC(=O)[C@@H](NC(=O)[C@H](Cc1ccccc1)NC(=O)[C@H](CO)NC(=O)CNC(=O)[C@H](CCC(=O)O)NC(=O)C(C)(C)NC(=O)[C@@H](N)Cc1c[nH]cn1)[C@@H](C)O)[C@@H](C)O)[C@@H](C)CC)C(=O)N[C@@H](C)C(=O)N[C@@H](Cc1c[nH]c2ccccc12)C(=O)N[C@@H](CC(C)C)C(=O)N[C@@H](Cc1ccc(O)cc1)C(=O)N[C@@H](CCC(=O)O)C(=O)N[C@@H](Cc1c[nH]cn1)C(=O)N[C@@H](CCCCN)C(=O)N[C@H](C(=O)N[C@H](C(=O)N[C@@H](CC(=O)O)C(=O)O)[C@@H](C)O)[C@@H](C)CC [Compound 23] (H-H[Aib]EGSFTSELATILDEQAARDFIAWLYEHKITD-OH) | 0.12 nM | 0.034 nM |
| CC[C@H](C)[C@H](NC(=O)[C@H](Cc1ccccc1)NC(=O)[C@H](CC(=O)O)NC(=O)[C@H](CCCNC(=N)N)NC(=O)[C@H](C)NC(=O)[C@H](C)NC(=O)[C@H](CCC(N)=O)NC(=O)[C@H](CCC(=O)O)NC(=O)[C@H](CC(=O)O)NC(=O)[C@H](CC(C)C)NC(=O)[C@@H](NC(=O)[C@@H](NC(=O)[C@H](C)NC(=O)[C@H](CC(C)C)NC(=O)[C@H](CCC(=O)O)NC(=O)[C@H](CO)NC(=O)[C@@H](NC(=O)[C@H](Cc1ccccc1)NC(=O)[C@H](CO)NC(=O)CNC(=O)[C@H](CCC(=O)O)NC(=O)C(C)(C)NC(=O)[C@@H](N)Cc1c[nH]cn1)[C@@H](C)O)[C@@H](C)O)[C@@H](C)CC)C(=O)N[C@@H](C)C(=O)N[C@@H](Cc1c[nH]c2ccccc12)C(=O)N[C@@H](CC(C)C)C(=O)N[C@@H](CCC(N)=O)C(=O)N[C@@H](C)C(=O)N[C@@H](Cc1c[nH]cn1)C(=O)N[C@@H](CCCCN)C(=O)N[C@H](C(=O)N[C@H](C(=O)N[C@@H](CC(=O)O)C(=O)O)[C@@H](C)O)[C@@H](C)CC [Compound 24] (H-H[Aib]EGSFTSELATILDEQAARDFIAWLQAHKITD-OH) | 0.042 nM | 0.049 nM |
| CC[C@H](C)[C@H](NC(=O)[C@H](CC(C)C)NC(=O)[C@H](Cc1c[nH]c2ccccc12)NC(=O)[C@H](C)NC(=O)[C@@H](NC(=O)[C@H](Cc1ccccc1)NC(=O)[C@H](CC(=O)O)NC(=O)[C@H](CCCNC(=N)N)NC(=O)[C@H](C)NC(=O)[C@H](C)NC(=O)[C@H](CCC(N)=O)NC(=O)[C@H](CCC(=O)O)NC(=O)[C@H](CC(=O)O)NC(=O)[C@H](CC(C)C)NC(=O)[C@@H](NC(=O)[C@@H](NC(=O)[C@H](C)NC(=O)[C@H](CC(C)C)NC(=O)[C@H](CCC(=O)O)NC(=O)[C@H](CO)NC(=O)[C@@H](NC(=O)[C@H](Cc1ccccc1)NC(=O)[C@H](CO)NC(=O)CNC(=O)[C@H](CCC(=O)O)NC(=O)C(C)(C)NC(=O)[C@@H](N)Cc1c[nH]cn1)[C@@H](C)O)[C@@H](C)O)[C@@H](C)CC)[C@@H](C)CC)C(=O)N[C@@H](C)C(=O)N[C@@H](CCC(N)=O)C(=O)N[C@@H](CCCCN)C(=O)N[C@H](C(=O)N[C@H](C(=O)N[C@@H](CC(=O)O)C(=O)O)[C@@H](C)O)[C@@H](C)CC [Compound 25] (H-H[Aib]EGSFTSELATILDEQAARDFIAWLIAQKITD-OH) | 0.008 nM | 0.062 nM |

The remaining lines, values ahead:

| EC50 [1] | EC50 [2] | Compound |
| --- | --- | --- |
| 0.11 nM | 0.024 nM | CC[C@H](C)[C@H](NC(=O)[C@H](Cc1ccccc1)NC(=O)[C@H](CC(=O)O)NC(=O)[C@H](CCCNC(=N)N)NC(=O)[C@H](C)NC(=O)[C@H](C)NC(=O)[C@H](CCC(N)=O)NC(=O)[C@H](CCC(=O)O)NC(=O)[C@H](CC(=O)O)NC(=O)[C@H](CC(C)C)NC(=O)[C@@H](NC(=O)[C@@H](NC(=O)[C@H](C)NC(=O)[C@H](CC(C)C)NC(=O)[C@H](CCC(=O)O)NC(=O)[C@H](CO)NC(=O)[C@@H](NC(=O)[C@H](Cc1ccccc1)NC(=O)[C@H](CO)NC(=O)CNC(=O)[C@H](CCC(=O)O)NC(=O)C(C)(C)NC(=O)[C@@H](N)Cc1c[nH]cn1)[C@@H](C)O)[C@@H](C)O)[C@@H](C)CC)C(=O)N[C@@H](C)C(=O)N[C@@H](Cc1c[nH]c2ccccc12)C(=O)N[C@@H](CC(C)C)C(=O)N[C@@H](Cc1ccc(O)cc1)C(=O)N[C@@H](C)C(=O)N[C@@H](Cc1c[nH]cn1)C(=O)N[C@@H](CCCCN)C(=O)N[C@H](C(=O)N[C@H](C(=O)N[C@@H](CC(=O)O)C(=O)O)[C@@H](C)O)[C@@H](C)CC [Compound 28] (H-H[Aib]EGSFTSELATILDEQAARDFIAWLYAHKITD-OH) |
| 0.044 nM | 0.11 nM | CC[C@H](C)[C@H](NC(=O)[C@H](Cc1ccccc1)NC(=O)[C@H](CC(=O)O)NC(=O)[C@H](CCCNC(=N)N)NC(=O)[C@H](C)NC(=O)[C@H](C)NC(=O)[C@H](CCC(N)=O)NC(=O)[C@H](CCC(=O)O)NC(=O)[C@H](CC(=O)O)NC(=O)[C@H](CC(C)C)NC(=O)[C@@H](NC(=O)[C@@H](NC(=O)[C@H](C)NC(=O)[C@H](CC(C)C)NC(=O)[C@H](CCC(=O)O)NC(=O)[C@H](CC(=O)O)NC(=O)[C@@H](NC(=O)[C@H](Cc1ccccc1)NC(=O)[C@@H](NC(=O)CNC(=O)[C@H](CCC(=O)O)NC(=O)C(C)(C)NC(=O)[C@@H](N)Cc1c[nH]cn1)[C@@H](C)O)[C@@H](C)O)[C@@H](C)O)[C@@H](C)CC)C(=O)N[C@@H](C)C(=O)N[C@@H](Cc1c[nH]c2ccccc12)C(=O)N[C@@H](CC(C)C)C(=O)N[C@@H](CCC(N)=O)C(=O)N[C@@H](C)C(=O)N[C@@H](CCC(N)=O)C(=O)N[C@@H](CCCCN)C(=O)N[C@H](C(=O)N[C@H](C(=O)N[C@@H](CC(=O)O)C(=O)O)[C@@H](C)O)[C@@H](C)CC [Compound 29] (H-H[Aib]EGTFTDELATILDEQAARDFIAWLQAQKITD-OH) |
